In ChEMBL document CHEMBL1201862, “PubChem BioAssay data set” (2004):
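Grown in 96-well plates, cells were treated for 48 hours with each compound at five concentrations. Insufficient inhibition: endpoint recorded as highest concentration tested. The concentration for 50% growth inhibition is given as GI50.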 Activity calls are given as the source filed them. Cut-off read from the data, not from the text of the source: active = GI50 up to about 1.1 µM and inactive = higher.

What was measured:
Assay in all cases: growth of human tumour cells (NCI), 48 h
[1] = test system: Hs-578T
[2] = test system: SR
[3] = test system: OVCAR-4
[4] = test system: KM12
[5] = test system: OVCAR-8
[6] = test system: UO-31
[7] = test system: HCC 2998
[8] = test system: MOLT-4
[9] = test system: M14
[10] = test system: SN12C
[11] = test system: A498
[12] = test system: SK-MEL-2
[13] = test system: CCRF-CEM
[14] = test system: SK-OV-3
[15] = test system: U-251
[16] = test system: OVCAR-5
[17] = test system: ACHN
[18] = test system: MDA-MB-435
[19] = test system: RXF 393

SMILES | GI50 [1] | GI50 [2] | GI50 [3] | GI50 [4] | GI50 [5] | GI50 [6] | GI50 [7] | GI50 [8] | GI50 [9] | GI50 [10] | GI50 [11] | GI50 [12] | GI50 [13] | GI50 [14] | GI50 [15] | GI50 [16] | GI50 [17] | GI50 [18] | GI50 [19]
COC(=O)c1cc2c(cc1CC1Cc3cc4c(cc3C1=O)CCC4)CCC2 (stereo not given) | 15 µM (inactive) | 45.4 µM (inactive) | 50.4 µM (inactive) | 32.4 µM (inactive) | 74 µM (inactive) | > 100 µM (inactive) | 43.7 µM (inactive) | 13.5 µM (inactive) | 66.8 µM (inactive) | 57.5 µM (inactive) | 56 µM (inactive) | 36.4 µM (inactive) | 21.5 µM (inactive) | 70.3 µM (inactive) | 46 µM (inactive) | > 100 µM (inactive) | > 100 µM (inactive) | 24.7 µM (inactive) | 
O=C1CSCC(=O)Nc2ccccc2N1 | > 100 µM (inactive) | > 100 µM (inactive) | > 100 µM (inactive) | > 100 µM (inactive) | > 100 µM (inactive) | > 100 µM (inactive) |  | > 100 µM (inactive) | > 100 µM (inactive) | > 100 µM (inactive) | > 100 µM (inactive) | > 100 µM (inactive) | > 100 µM (inactive) | > 100 µM (inactive) | > 100 µM (inactive) | > 100 µM (inactive) | > 100 µM (inactive) | > 100 µM (inactive) | > 100 µM (inactive)
Cc1ccnc(NC(NC(=O)c2ccccc2)(C(F)(F)F)C(F)(F)F)c1 | > 100 µM (inactive) | 41.1 µM (inactive) | > 100 µM (inactive) | > 100 µM (inactive) | > 100 µM (inactive) | > 100 µM (inactive) | > 100 µM (inactive) | > 100 µM (inactive) | > 100 µM (inactive) | > 100 µM (inactive) |  | > 100 µM (inactive) | 75.9 µM (inactive) | > 100 µM (inactive) | > 100 µM (inactive) | > 100 µM (inactive) | > 100 µM (inactive) | > 100 µM (inactive) | > 100 µM (inactive)
CN(c1ccc(Cl)cc1)S(=O)(=O)c1ccccc1 | > 100 µM (inactive) | 32.1 µM (inactive) | 77.1 µM (inactive) | 40.8 µM (inactive) | 44.6 µM (inactive) | 42 µM (inactive) | 84.1 µM (inactive) | 28 µM (inactive) | 45.1 µM (inactive) | > 100 µM (inactive) |  | > 100 µM (inactive) | 46.2 µM (inactive) | 78.5 µM (inactive) | 42.9 µM (inactive) | 52.8 µM (inactive) | > 100 µM (inactive) | 41.3 µM (inactive) | 11.3 µM (inactive)
Cc1ccccc1N/N=C1\C(=O)Nc2ccccc21 | > 100 µM (inactive) | > 100 µM (inactive) | > 100 µM (inactive) | > 100 µM (inactive) | > 100 µM (inactive) | > 100 µM (inactive) | > 100 µM (inactive) | > 100 µM (inactive) | > 100 µM (inactive) | 88.9 µM (inactive) |  | > 100 µM (inactive) | > 100 µM (inactive) | > 100 µM (inactive) | > 100 µM (inactive) | > 100 µM (inactive) | > 100 µM (inactive) | > 100 µM (inactive) | > 100 µM (inactive)
Cc1nnc2sc(-c3ccc(N)cc3)nn12 | 89.3 µM (inactive) | > 100 µM (inactive) | > 100 µM (inactive) | > 100 µM (inactive) | > 100 µM (inactive) | > 100 µM (inactive) | > 100 µM (inactive) | > 100 µM (inactive) | > 100 µM (inactive) | > 100 µM (inactive) |  | > 100 µM (inactive) | > 100 µM (inactive) | > 100 µM (inactive) |  | > 100 µM (inactive) | > 100 µM (inactive) | > 100 µM (inactive) | > 100 µM (inactive)
CN(C)CCCN1c2ccc(O)cc2Sc2ccc(Cl)cc21 [7-HYDROXYCHLORPROMAZINE] | 4.04 µM (inactive) | 2.96 µM (inactive) | 12.5 µM (inactive) | 10.5 µM (inactive) | 16 µM (inactive) | 9.53 µM (inactive) |  | 3.18 µM (inactive) | 5.97 µM (inactive) | 10.3 µM (inactive) | 16.5 µM (inactive) | 6.04 µM (inactive) | 0.859 µM (active) | 17.4 µM (inactive) | 9.86 µM (inactive) | 15.1 µM (inactive) | 14.8 µM (inactive) | 8.91 µM (inactive) | 16.9 µM (inactive)
